ChEMBL document CHEMBL1137222, “Architecture of P2Y nucleotide receptors: structural comparison based on sequence analysis, mutagenesis, and homology modeling” (J Med Chem, 2004)

What was measured:
Type in all cases: cell-based
P2Y purinoceptor 1 [1] = molecular target: P2Y purinoceptor 1 (Homo sapiens, UniProt P47900, Y273A); assay: Inhibition concentration required against human Y273A mutant strain P2Y1 receptor expressed in COS-7 cells is determined using [3H]-MRS2279 as radioligand
P2Y purinoceptor 1 [2] = molecular target: P2Y purinoceptor 1 (Homo sapiens, UniProt P47900, Y203F); assay: Inhibition concentration required against human Y203F mutant strain P2Y1 receptor expressed in COS-7 cells is determined using [3H]MRS2279 as radioligand
Chain of P2Y purinoceptor 1 (Homo sapiens, UniProt P47900, Y203F) (P47900 whole entry Y203F): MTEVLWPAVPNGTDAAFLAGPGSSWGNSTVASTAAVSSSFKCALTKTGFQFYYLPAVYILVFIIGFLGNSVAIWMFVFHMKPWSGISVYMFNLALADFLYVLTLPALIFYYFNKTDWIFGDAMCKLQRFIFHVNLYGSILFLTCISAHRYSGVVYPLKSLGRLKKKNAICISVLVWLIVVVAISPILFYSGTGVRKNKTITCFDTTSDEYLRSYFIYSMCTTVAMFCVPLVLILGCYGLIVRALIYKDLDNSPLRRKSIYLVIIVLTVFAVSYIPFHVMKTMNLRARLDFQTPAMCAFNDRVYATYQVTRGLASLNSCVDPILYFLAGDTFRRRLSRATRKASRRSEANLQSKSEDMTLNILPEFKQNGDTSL

P2Y purinoceptor 1 [3] = molecular target: P2Y purinoceptor 1 (Homo sapiens, UniProt P47900, Y273F); assay: Inhibition concentration required against human Y273F mutant strain P2Y1 receptor expressed in COS-7 cells is determined using [3H]MRS2279 as radioligand
Chain of P2Y purinoceptor 1 (Homo sapiens, UniProt P47900, Y273F) (P47900 whole entry Y273F): as the sequence (P47900 whole entry Y203F) above, with F203Y, Y273F counted along it

P2Y purinoceptor 1 [4] = molecular target: P2Y purinoceptor 1 (Homo sapiens, UniProt P47900, Y306F); assay: Inhibition concentration required against human Y306F mutant strain P2Y1 receptor expressed in COS-7 cells is determined using [3H]MRS2279 as radioligand
Chain of P2Y purinoceptor 1 (Homo sapiens, UniProt P47900, Y306F) (P47900 whole entry Y306F): as the sequence (P47900 whole entry Y203F) above, with F203Y, Y306F counted along it

P2Y purinoceptor 1 [5] = molecular target: P2Y purinoceptor 1 (Homo sapiens, UniProt P47900); assay: Inhibition concentration required against wild type strain P2Y1 receptor expressed in COS-7 cells is determined using [3H]-MRS2279 as radioligand
Chain of P2Y purinoceptor 1 (Homo sapiens, UniProt P47900) (P47900 whole entry): as the sequence (P47900 whole entry Y203F) above, with F203Y counted along it

P2Y purinoceptor 1 [6] = molecular target: P2Y purinoceptor 1 (Homo sapiens, UniProt P47900, Y203A); assay: Inhibition concentration required against human Y203A (EL2) mutant strain P2Y1 receptor expressed in COS-7 cells is determined using [3H]MRS2279 as radioligand
Chain of P2Y purinoceptor 1 (Homo sapiens, UniProt P47900, Y203A) (P47900 whole entry Y203A): as the sequence (P47900 whole entry Y203F) above, with F203A counted along it

P2Y purinoceptor 1 [7] = molecular target: P2Y purinoceptor 1 (Homo sapiens, UniProt P47900, Y306A); assay: Inhibition concentration required against human Y306A mutant strain P2Y1 receptor expressed in COS-7 cells is determined using [3H]MRS2279 as radioligand
Chain of P2Y purinoceptor 1 (Homo sapiens, UniProt P47900, Y306A) (P47900 whole entry Y306A): as the sequence (P47900 whole entry Y203F) above, with F203Y, Y306A counted along it

Chain of P2Y purinoceptor 1 (Homo sapiens, UniProt P47900, Y273A) (P47900 whole entry Y273A): as the sequence (P47900 whole entry Y203F) above, with F203Y, Y273A counted along it

Q: How did the IC50 (P2Y purinoceptor 1 [1]) turn out when CNc1ncnc2c1ncn2[C@H]1CC(OP(=O)(O)O)[C@@H](COP(=O)(O)O)O1 (single isomer, unassigned) was run?
A: Its IC50 is 480 nM.

Q: And the IC50 (P2Y purinoceptor 1 [2])?
A: The IC50 was 330 nM.

Q: What about the IC50 (P2Y purinoceptor 1 [3]) of the same compound?
A: The IC50 was 660 nM.

Q: What about the IC50 (P2Y purinoceptor 1 [4]) of the same compound?
A: The IC50 was 980 nM.

Q: And the IC50 (P2Y purinoceptor 1 [5])?
A: Its IC50 is 210 nM.

Q: What about the IC50 (P2Y purinoceptor 1 [6]) of the same compound?
A: The IC50 was 740 nM.

Q: And the IC50 (P2Y purinoceptor 1 [7])?
A: Its IC50 is 320 nM.
